Consider 2 compounds from patent US11110070B2 (priority 2015, dated 2021).

Structures are written as SMILES. Entries after “also recorded” stand apart in the source; their conditions may differ. Counter-ions that a name gives are not always drawn.

One experiment has as its system 129S6/SvEv mice. Description: FST after prophylactic ketamine or ketamine metabolites (FIG. 15). The class given is in vivo. To be noted: at 10 and 30 mg/kg.
The test system of experiment [1] is C57BL/6NTac mice. Description: NSF in CORT model. Type of experiment: in vivo. As to conditions: treatment after 4 weeks of CORT; 14 days after the start of treatment. On the procedure: Experiment 5 (Pre-ketamine and pre-fluoxetine corticosterone (CORT)): C57BL16NTac mice were injected with ketamine (10, 30, 90 mg kg^−1, i.p.) 1 week before the start of CORT, or administered fluoxetine (18 mg kg^−1 per day) in the drinking water for 3 weeks before the start of CORT. Ketamine was purchased from Merial (100 mg/ml stock solution). Fluoxetine hydrochloride (160 μg/mL, equivalent to 18 mg kg^−1 per day in the drinking water) was purchased from Anawa Trading (Zurich, Switzerland) and dissolved in 0.45% hydroxypropyl-β-cyclodextrin (β-CD) (Sigma-Aldrich, Saint-Quentin Fallavier, France) solution. Following ketamine or fluoxetine treatment, CORT was administered for 3 weeks in the drinking water. CORT (4-pregnen-11b-DIOL-3 20-DIONE 21-hemisuccinate) (35 μg/ml) from. Sigma Aldrich (Saint-Quentin Fallavier, France) was dissolved in vehicle (0.45% β-CD). Control animals received vehicle (0.45% β-CD) throughout the duration of the experiment. […]
Testing was performed as previously described (A13). […] The latency of the mice to begin eating was recorded. Immediately after the latency was recorded, the food pellet was removed from the arena. The mice were then placed into a cage and the amount of food consumed in 5 min was measured (home cage consumption), followed by an assessment of post-restriction weight. […]

Experiment [2] deals with C57BL/6NTac mice. Description: Tail suspension test (TST) after CORT. The class given is in vivo. As to conditions: after 4 weeks of CORT; ketamine 10 mg kg^−1 one injection or fluoxetine 18 mg kg^−1 per day; both time points. On the procedure:
Experiment 6 (Post-ketamine and post-fluoxetine in CORT); In C57BL/6NTac mice. vehicle or CORT was administered for 4 weeks in the drinking water. While administration with 0.45% β-CD or CORT continued, mice were injected with saline or ketamine (10 mg kg^−1), or were administered vehicle or chronic fluoxetine (18 mg kg^−1 per day in the drinking water).
The TST was administered as previously described (A2). Briefly, animals were suspended for 6 min and immobility during this period was assessed using an automated TST apparatus (Bioseb, Vitrolles, France). A specific strain gauge linked to a computer quantifies the time spent by each mouse trying to escape.

Experiment [3] relates to 129S6/SvEvTac mice. Nature of the experiment: Forced swim test (FST) in social defeat (SD) model. Type of experiment: in vivo. How it is done: Experiment 1 (Pre-ketamine in social defeat (SD)): At 8 weeks of age, a single injection of saline (0.9% NaCl) or ketamine (K) (10, 30, or 90 mg kg^−1) (Ketaset III, Ketamine HCl, Fort Dodge Animal Health, Forth Dodge, Iowa) was administered. Ketamine was prepared in physiological saline and all injections were administered intraperitoneally (i.p.) in volumes of 0.1 cc per […]. […] At 9 weeks of age, 1 week following this injection, SD was started.
24 h after the last bout of SD, a single injection of saline or ketamine (30 mg kg^−1) was administered (mice were 11 weeks old). The forced swim test (PST) was administered 2 h following the injection.
(§1) Experiment 3 (Pre-fluoxetine in SD): At 6 weeks of age, fluoxetine hydrochloride (Fix) (BioTrend Chemicals AG, B6197) was administered in the drinking water (18 mg kg^−1/day) for 3 weeks before the start of SD. Starting at 9 weeks of age, SD was then administered for 2 weeks without vehicle or Flx in the drinking water.
(§2) Adult aggressor CD-1 male mice were single-housed in Macrolon® polycarbonate resin cages (15.25 in×7.8 in×9.5 in) (Animal Care Systems, Inc., Centennial, Colo.). Male 129S6/SvEvTac mice (9 weeks of age) were subsequently placed into the resident. CD-1 mouse's cage. Three antagonistic encounters were allowed between the CD-1 mouse and the intruder. Each of these encounters typically lasted less than 5 min. Following the encounters, mice were separated by a polished stainless steel cage divider (Animal Care Systems, Inc., Centennial, Colo., P/N C79171), which allowed for olfactory and auditory communication, but limited visual or tactile contact. The partition was removed daily for 2 weeks and 3 antagonistic encounters were allowed between the mice each day. This procedure consistently yielded a submissive phenotype in the experimental intruder mice. Control (Ctrl) mice were group housed 4 to 5 per cage in Macrolon® polycarbonate resin cages without dividers.
The FST was administered as previously described (A11). Briefly, mice were placed into clear plastic buckets 20 cm in diameter and 23 cm deep filled ⅔ of the way with 22° C. water. Mice were videotaped, from the side for 6 min and were exposed to the swim test on 2 consecutive days. For the SI) experiments, scoring was performed using an automated Viewpoint Videotrack software package (http://www.viewpoint.fr/en/a/anxiety-and-depression). For the CORT experiments, automated scoring was done using the automated X'PERT EST software suite (Bioseb, Vitrolles, France). The dependent variable was immobility.

Experiment [4] relates to C57BL/6NTac mice. Description: EPM in CORT model. Type of experiment: in vivo. As to conditions: ketamine or fluoxetine before CORT. How it is done:
Experiment 5 (Pre-ketamine and pre-fluoxetine corticosterone (CORT)): C57BL16NTac mice were injected with ketamine (10, 30, 90 mg kg^−1, i.p.) 1 week before the start of CORT, or administered fluoxetine (18 mg kg^−1 per day) in the drinking water for 3 weeks before the start of CORT. Ketamine was purchased from Merial (100 mg/ml stock solution). Fluoxetine hydrochloride (160 μg/mL, equivalent to 18 mg kg^−1 per day in the drinking water) was purchased from Anawa Trading (Zurich, Switzerland) and dissolved in 0.45% hydroxypropyl-β-cyclodextrin (β-CD) (Sigma-Aldrich, Saint-Quentin Fallavier, France) solution. Following ketamine or fluoxetine treatment, CORT was administered for 3 weeks in the drinking water. CORT (4-pregnen-11b-DIOL-3 20-DIONE 21-hemisuccinate) (35 μg/ml) from. Sigma Aldrich (Saint-Quentin Fallavier, France) was dissolved in vehicle (0.45% β-CD). Control animals received vehicle (0.45% β-CD) throughout the duration of the experiment.
Testing was performed as previously described (A14). […] For the 12956/SvEv experiments, videos were scored using behavioral tracking software (TopScan, CleverSys, Reston, Va.). For the C57BL/6Ntac experiments, all parameters were measured using a videotracker (EPM3C. Bioseb, Vitrolles, France).

Experiment [5] concerns 129S6/SvEvTac mice. Description: Fighting behavior during SD bouts. As to conditions: SD-Flx vs SD-Veh. Type of experiment: in vivo. On the procedure:
as §2

The test system of experiment [6] is C57BL/6NTac mice. Description: FST in chronic corticosterone (CORT) model. The class given is in vivo. As to conditions: ketamine 90 mg kg^−1 or fluoxetine 18 mg kg^−1/day, before 3 weeks of CORT; hydrochloride.
Experiment [7] is described as follows: Body weight in CORT model. Type of experiment: in vivo, mice. To be noted: ketamine 90 mg kg^−1 single injection or fluoxetine 18 mg kg^−1 for 3 weeks, before CORT.
Experiment [8] deals with 129S6/SvEvTac mice. Nature of the experiment: Other behaviors following fluoxetine treatment before SD. The class given is in vivo. As to conditions: fluoxetine 3 weeks before SD. On the procedure:
as §1

`N[C@@]1(c2ccccc2Cl)CCC[C@@H](O)C1=O` [HNK, (2R,6R)-hydroxynorketamine]: the “prophylactic efficacy (behavioral despair, FST)” value in the experiment with 129S6/SvEv mice is on record as “efficacious as prophylactics”.
As to `CNCCC(Oc1ccc(C(F)(F)F)cc1)c1ccccc1` (stereo not shown) [fluoxetine, fluoxetine hydrochloride], the “latency to feed in NSF” value in the experiment with C57BL/6NTac mice [1] was “decreased the latency to feed”. Also, the “immobility time in the TST” value with C57BL/6NTac mice [2] was “decreased immobility time in the TST”. The “immobility time, day 2 of FST” value with 129S6/SvEvTac mice [3] (Ctrl mice, fluoxetine 18 mg kg^−1 for 3 weeks, vs Ctrl-Veh) is “equal levels of immobility time”; in the experiment with 129S6/SvEvTac mice [3] (SD mice, fluoxetine 18 mg kg^−1 for 3 weeks before SD), “did not improve immobility time”. Moreover, the “time in the closed arms of EPM (anxiety-like phenotype)” value in the experiment on C57BL/6NTac mice [4] is listed as “Neither ketamine nor fluoxetine robustly protected”. Also, the “behavior during SD bouts” value in the experiment on 129S6/SvEvTac mice [5] was “do not display differences during SD bouts”. Moreover, the “immobility time on day 2 in the FST” value in the experiment with C57BL/6NTac mice [6] is “decreased immobility time; also recorded: significantly reduced immobility”. The “CORT-induced increase in body weight” value in experiment [7] was “prevented the CORT-induced increase in body weight”. For the same compound, in the experiment on 129S6/SvEvTac mice [8], the anxiety or cognition result was “did not significantly alter anxiety or cognition”.
